Experimental data as given in EP4740948A1 (Dong Wha Pharm. Co., Ltd., priority 2023, dated 2025).

How the values were obtained:
[1] = molecular target: EZH1 (Homo sapiens, UniProt Q92800); experiment: AlphaLISA enzyme activity inhibition, EZH1; format: biochemical; conditions: 5nM test substance
Experimental: (§1) In order to confirm the EZH1 and/or EZH2 activity inhibitory effect of the 1,3-benzodioxole derivative compounds represented by chemical formula I of the present invention, the activity was measured using an AlphaLISA test method. The test substance dissolved in dimethylsulfoxide (DMSO) was diluted in a test solution (20 mM Tris pH 8.0, 0.1% BSA, 0.01% Triton X-100, 0.5 mM DTT) according to a final treatment concentration (5 nM or 10 nM) and mixed with EZH1 and EZH2, respectively, and then histone H3 peptide and S-adenosylmethionine (SAM) were added to initiate an enzyme reaction. An acceptor bead was added thereto after reaction for two hours and subjected to an additional reaction for one hour, after which a donor bead was added thereto. After an additional reaction for 30 minutes, the reaction was completed. An activity was measured using the Magellan program on a Spark10M instrument. DMSO was used as a control group, an inhibition rate of enzyme activity was calculated using a following equation, and the results thereof are shown in Table 1 below. [formula]

[2] = tested on: SW-13 cells; experiment: Cancer cell proliferation inhibition (Cell Counting Kit-8), adrenal cancer cell line; format: cell-based; conditions: Homo sapiens, SW13, 264 h, 1000 nM, cultured seven to 11 days; read-out: % inhibition rate SW-13
Method in brief: (§2)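 After plating 100 to 1,000 cells per well in medium with 10% fetal bovine serum, each line receives 1000 nM compound and is cultured for seven to 11 days. Growth inhibition is derived from CCK-8 signal compared with control cultures.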

[3] = tested on: NCI-H1299 cells; experiment: Cancer cell proliferation inhibition (Cell Counting Kit-8), lung cancer cell line; format: cell-based; conditions: Homo sapiens, NCI-H1299, 264 h, 1000 nM, cultured seven to 11 days; read-out: % inhibition rate NCI-H129 9
Method in brief: as §2

[4] = tested on: G401 cells; experiment: Cancer cell proliferation inhibition (Cell Counting Kit-8), rhabdoid tumor cell line; format: cell-based; conditions: Homo sapiens, G-401, 264 h, 1000 nM, cultured seven to 11 days; read-out: % inhibition rate G401
Method in brief: (§3)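 Single 1000 nM dose of test substance, applied to cells seeded at 100–1,000 per well in 10% FBS medium, then culture for seven to 11 days. CCK-8 read-out; inhibition rate expressed as percent relative to untreated control.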

[5] = tested on: MIA-PaCa-2 cells; experiment: Cancer cell proliferation inhibition (Cell Counting Kit-8), pancreatic cancer cell line; format: cell-based; conditions: Homo sapiens, MIA PaCa-2, 264 h, 1000 nM, cultured seven to 11 days; read-out: % inhibition rate MIA-Paca2
Method in brief: as §2

[6] = tested on: MKN-45 cells; experiment: Cancer cell proliferation inhibition (Cell Counting Kit-8), gastric cancer cell line; format: cell-based; conditions: Homo sapiens, MKN-45, 264 h, 1000 nM, cultured seven to 11 days; read-out: % inhibition rate MKN -45
Method in brief: as §3

[7] = tested on: Lovo cells; experiment: Cancer cell proliferation inhibition (Cell Counting Kit-8), colorectal cancer cell line; format: cell-based; conditions: Homo sapiens, LoVo, 264 h, 1000 nM, cultured seven to 11 days; read-out: % inhibition rate LoVo
Method in brief: as §2

[8] = molecular target: EZH2 (Homo sapiens, UniProt Q15910); experiment: AlphaLISA enzyme activity inhibition, EZH2; format: biochemical; conditions: 5nM test substance
Chain of EZH2 (Q15910 whole entry, species assumed): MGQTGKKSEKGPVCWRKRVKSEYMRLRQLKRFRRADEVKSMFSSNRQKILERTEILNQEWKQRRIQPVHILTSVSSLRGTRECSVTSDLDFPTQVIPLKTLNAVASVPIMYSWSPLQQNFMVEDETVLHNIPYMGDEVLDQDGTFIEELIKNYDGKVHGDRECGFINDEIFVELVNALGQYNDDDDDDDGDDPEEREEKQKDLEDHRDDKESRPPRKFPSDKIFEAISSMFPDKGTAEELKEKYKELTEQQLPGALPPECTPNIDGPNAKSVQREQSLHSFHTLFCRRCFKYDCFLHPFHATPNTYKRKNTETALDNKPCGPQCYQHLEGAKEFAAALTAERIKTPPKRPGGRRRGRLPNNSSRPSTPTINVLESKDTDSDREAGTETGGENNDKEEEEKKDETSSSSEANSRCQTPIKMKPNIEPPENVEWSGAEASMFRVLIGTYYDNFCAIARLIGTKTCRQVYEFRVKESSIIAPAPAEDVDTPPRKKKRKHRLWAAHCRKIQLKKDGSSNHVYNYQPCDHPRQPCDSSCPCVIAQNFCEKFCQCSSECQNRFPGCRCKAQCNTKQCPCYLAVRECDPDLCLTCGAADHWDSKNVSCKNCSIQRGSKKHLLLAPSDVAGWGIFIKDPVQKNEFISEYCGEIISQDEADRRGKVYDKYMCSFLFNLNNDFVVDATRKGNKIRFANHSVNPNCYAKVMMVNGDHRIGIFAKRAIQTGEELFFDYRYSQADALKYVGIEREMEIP
Chain of EZH2 (O75530 whole entry partner, species assumed): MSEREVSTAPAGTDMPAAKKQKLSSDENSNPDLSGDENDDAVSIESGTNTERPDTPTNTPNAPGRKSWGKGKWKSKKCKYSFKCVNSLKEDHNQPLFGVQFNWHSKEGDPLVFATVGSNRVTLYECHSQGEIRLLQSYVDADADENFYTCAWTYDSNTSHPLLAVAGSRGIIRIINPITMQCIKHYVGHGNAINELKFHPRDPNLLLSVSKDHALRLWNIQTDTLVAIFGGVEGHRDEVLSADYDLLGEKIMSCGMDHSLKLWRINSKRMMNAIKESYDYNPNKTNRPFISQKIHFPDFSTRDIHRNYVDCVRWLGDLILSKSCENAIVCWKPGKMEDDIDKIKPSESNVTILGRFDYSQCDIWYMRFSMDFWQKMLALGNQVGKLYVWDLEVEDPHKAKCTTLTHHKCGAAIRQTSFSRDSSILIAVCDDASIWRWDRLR
Chain of EZH2 (Q15022 whole entry partner, species assumed): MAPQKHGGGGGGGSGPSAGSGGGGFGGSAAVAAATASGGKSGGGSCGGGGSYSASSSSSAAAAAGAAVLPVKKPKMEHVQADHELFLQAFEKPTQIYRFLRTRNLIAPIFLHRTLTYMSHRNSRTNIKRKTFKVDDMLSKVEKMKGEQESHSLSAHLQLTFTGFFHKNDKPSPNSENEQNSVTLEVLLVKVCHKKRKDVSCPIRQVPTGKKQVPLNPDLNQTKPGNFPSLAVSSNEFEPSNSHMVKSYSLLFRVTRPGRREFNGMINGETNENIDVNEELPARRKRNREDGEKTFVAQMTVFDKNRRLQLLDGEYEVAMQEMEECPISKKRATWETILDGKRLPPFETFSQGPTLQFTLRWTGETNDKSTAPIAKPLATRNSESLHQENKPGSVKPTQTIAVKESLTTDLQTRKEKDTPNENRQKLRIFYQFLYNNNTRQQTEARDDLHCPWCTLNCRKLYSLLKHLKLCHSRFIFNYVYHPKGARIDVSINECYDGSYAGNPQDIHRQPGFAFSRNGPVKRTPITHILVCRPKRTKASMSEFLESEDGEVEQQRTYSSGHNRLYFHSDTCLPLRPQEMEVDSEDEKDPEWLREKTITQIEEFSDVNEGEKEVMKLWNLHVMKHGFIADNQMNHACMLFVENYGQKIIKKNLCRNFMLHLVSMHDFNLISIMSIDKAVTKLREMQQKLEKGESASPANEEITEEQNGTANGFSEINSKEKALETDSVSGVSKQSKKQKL
Experimental: as §1

Chain of EZH1 (Q92800 whole entry, species assumed): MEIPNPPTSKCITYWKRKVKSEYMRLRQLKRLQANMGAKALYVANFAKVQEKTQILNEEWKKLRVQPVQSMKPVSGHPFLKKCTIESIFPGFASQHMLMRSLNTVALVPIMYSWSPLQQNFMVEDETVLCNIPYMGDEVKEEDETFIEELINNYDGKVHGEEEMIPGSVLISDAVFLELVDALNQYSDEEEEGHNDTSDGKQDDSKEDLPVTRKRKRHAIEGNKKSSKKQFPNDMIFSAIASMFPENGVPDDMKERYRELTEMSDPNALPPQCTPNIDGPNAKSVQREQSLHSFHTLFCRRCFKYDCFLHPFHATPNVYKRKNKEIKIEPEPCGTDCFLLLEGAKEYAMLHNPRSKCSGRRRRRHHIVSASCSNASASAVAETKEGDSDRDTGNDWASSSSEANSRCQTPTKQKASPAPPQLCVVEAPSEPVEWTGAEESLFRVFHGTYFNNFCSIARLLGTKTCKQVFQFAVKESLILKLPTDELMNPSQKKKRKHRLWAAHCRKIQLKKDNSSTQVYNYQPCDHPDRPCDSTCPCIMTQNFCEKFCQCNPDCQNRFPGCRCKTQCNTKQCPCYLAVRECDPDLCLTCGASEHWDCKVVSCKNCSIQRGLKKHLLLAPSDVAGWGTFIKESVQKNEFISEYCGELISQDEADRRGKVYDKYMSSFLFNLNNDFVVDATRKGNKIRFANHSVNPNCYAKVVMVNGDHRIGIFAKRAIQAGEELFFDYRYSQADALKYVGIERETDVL
Chain of EZH1 (O75530 whole entry partner, species assumed): as the sequence (O75530 whole entry partner, species assumed) above
Chain of EZH1 (Q15022 whole entry partner, species assumed): as the sequence (Q15022 whole entry partner, species assumed) above

SMILES	inhibition at 0.005 µM [1]	inhibition at 0.005 µM [8]	inhibition at 1 µM [2]	inhibition at 1 µM [3]	inhibition at 1 µM [4]	inhibition at 1 µM [5]	inhibition at 1 µM [6]	inhibition at 1 µM [7]
CSc1cc(C)[nH]c(=O)c1CNC(=O)c1cc(-c2cnc(N3CCC4(CC3)COC4)nc2)c2c(c1C)OC(C)([C@H]1CC[C@H](N(C)C)CC1)O2 (relative stereo) [Compound 15, 7-(2-(2-oxa-7-azaspiro[3.5]nonan-7-yl)pyrimidin-5-yl)-2-(trans-4-(dimethylamino)cyclohexyl)-2,4-dimethyl-N-((6-methyl-4-(methylthio)-2-oxo-1,2-dihydropyridin-3-yl)methyl)benzo[d][1,3]dioxole-5-carboxamide]	94.5%	99.8%	30 to 70%	≤ 30%	30 to 70%	≤ 30%	30 to 70%	≥ 70%
CSc1cc(C)[nH]c(=O)c1CNC(=O)c1cc(-c2ccc(N3CC(C)CC(C)C3)nc2)c2c(c1C)OC(C)([C@H]1CC[C@H](N(C)C)CC1)O2 (relative stereo) [Compound 16, 2-(trans-4-(dimethylamino)cyclohexyl)-7-(6-(3,5-dimethylpiperidin-1-yl)pyridin-3-yl)-2,4-dimethyl-N-((6-methyl-4-(methylthio)-2-oxo-1,2-dihydropyridin-3-yl)methyl)benzo[d][1,3]dioxole-5-carboxamide]	69%	92.4%	≥ 70%	≤ 30%	30 to 70%	≤ 30%	30 to 70%	≥ 70%
CSc1cc(C)[nH]c(=O)c1CNC(=O)c1cc(-c2ccc(N3CCSCC3)nc2)c2c(c1C)OC(C)([C@H]1CC[C@H](N(C)C)CC1)O2 (relative stereo) [Compound 17, 2-(trans-4-(dimethylamino)cyclohexyl)-2,4-dimethyl-N-((6-methyl-4-(methylthio)-2-oxo-1,2-dihydropyridin-3-yl)methyl)-7-(6-thiomorpholinopyridin-3-yl)benzo[d][1,3]dioxole-5-carboxamide]	93.8%	99.3%	30 to 70%	30 to 70%	30 to 70%	≤ 30%	≤ 30%	≥ 70%
CSc1cc(C)[nH]c(=O)c1CNC(=O)c1cc(-c2cnc(N3CCCCC3)nc2)c2c(c1C)OC(C)([C@H]1CC[C@H](N(C)CC(F)(F)F)CC1)O2 (relative stereo) [Compound 21, 2,4-dimethyl-2-(trans-4-(methyl(2,2,2-trifluoroethyl)amino)cyclohexyl)-N-((6-methyl-4-(methylthio)-2-oxo-1,2-dihydropyridin-3-yl)methyl)-7-(2-(piperidin-1-yl)pyrimidin-5-yl)benzo[d][1,3]dioxole-5-carboxamide]	20.6%	11.3%	≤ 30%	≤ 30%	≤ 30%	≤ 30%	≤ 30%	≥ 70%
CSc1cc(C)[nH]c(=O)c1CNC(=O)c1cc(-c2cnc(N(C)C)nc2)c2c(c1C)OC(C)([C@H]1CC[C@H](N(C)CC(F)(F)F)CC1)O2 (relative stereo) [Compound 22, 7-(2-(dimethylamino)pyrimidin-5-yl)-2,4-dimethyl-2-(trans-4-(methyl(2,2,2-trifluoroethyl)amino)cyclohexyl)-N-((6-methyl-4-(methylthio)-2-oxo-1,2-dihydropyridin-3-yl)methyl)benzo[d][1,3]dioxole-5-carboxamide]	53.1%	81%	≤ 30%	≤ 30%	30 to 70%	≤ 30%	30 to 70%	≥ 70%
COCCN(C)[C@H]1CC[C@H](C2(C)Oc3c(-c4cnc(N(C)C)nc4)cc(C(=O)NCc4c(SC)cc(C)[nH]c4=O)c(C)c3O2)CC1 (relative stereo) [Compound 26, 7-(2-(dimethylamino)pyrimidin-5-yl)-2-(trans-4-((2-methoxyethyl)(methyl)amino)cyclohexyl)-2,4-dimethyl-N-((6-methyl-4-(methylthio)-2-oxo-1,2-dihydropyridin-3-yl)methyl)benzo[d][1,3]dioxole-5-carboxamide]	87.3%	99.6%	30 to 70%	≤ 30%	30 to 70%	≤ 30%	≤ 30%	≥ 70%
COCCN(C)[C@H]1CC[C@H](C2(C)Oc3c(-c4ccc(N5CCC(F)(F)CC5)nc4)cc(C(=O)NCc4c(SC)cc(C)[nH]c4=O)c(C)c3O2)CC1 (relative stereo) [Compound 27, 7-(6-(4,4-difluoropiperidin-1-yl)pyridin-3-yl)-2-(trans-4-((2-methoxyethyl)(methyl)amino)cyclohexyl)-2,4-dimethyl-N-((6-methyl-4-(methylthio)-2-oxo-1,2-dihydropyridin-3-yl)methyl)benzo[d][1,3]dioxole-5-carboxamide]	80.2%	95.8%	30 to 70%	≤ 30%	30 to 70%	≤ 30%	30 to 70%	≥ 70%

Second part, led by results:

inhibition at 0.005 µM [1]	inhibition at 0.005 µM [8]	SMILES	inhibition at 1 µM [2]	inhibition at 1 µM [3]	inhibition at 1 µM [4]	inhibition at 1 µM [5]	inhibition at 1 µM [6]	inhibition at 1 µM [7]
53.7%	97.6%	CSc1cc(C)[nH]c(=O)c1CNC(=O)c1cc(-c2c(C)noc2C)c2c(c1C)OC(C)([C@H]1CC[C@H](N(C)C)CC1)O2 (relative stereo) [Compound 13, 2-(trans-4-(dimethylamino)cyclohexyl)-7-(3,5-dimethylisoxazol-4-yl)-2,4-dimethyl-N-((6-methyl-4-(methylthio)-2-oxo-1,2-dihydropyridin-3-yl)methyl)benzo[d][1,3]dioxole-5-carboxamide]	≤ 30%	≤ 30%	30 to 70%	≤ 30%	≤ 30%	30 to 70%
86.4%	97.6%	CSc1cc(C)[nH]c(=O)c1CNC(=O)c1cc(-c2ccc(F)nc2F)c2c(c1C)OC(C)([C@H]1CC[C@H](N(C)C)CC1)O2 (relative stereo) [Compound 14, 7-(2,6-difluoropyridin-3-yl)-2-(trans-4-(dimethylamino)cyclohexyl)-2,4-dimethyl-N-((6-methyl-4-(methylthio)-2-oxo-1,2-dihydropyridin-3-yl)methyl)benzo[d][1,3]dioxole-5-carboxamide]	30 to 70%	≤ 30%	30 to 70%	≤ 30%	≤ 30%	≥ 70%
87.6%	99.8%	CSc1cc(C)[nH]c(=O)c1CNC(=O)c1cc(-c2ccoc2)c2c(c1C)OC(C)([C@H]1CC[C@H](N(C)C)CC1)O2 (relative stereo) [Compound 18, 2-(trans-4-(dimethylamino)cyclohexyl)-7-(furan-3-yl)-2,4-dimethyl-N-((6-methyl-4-(methylthio)-2-oxo-1,2-dihydropyridin-3-yl)methyl)benzo[d][1,3]dioxole-5-carboxamide]	30 to 70%	≤ 30%	30 to 70%	≤ 30%	≤ 30%	≥ 70%
78.7%	98.7%	CSc1cc(C)[nH]c(=O)c1CNC(=O)c1cc(-c2ccc(Cl)s2)c2c(c1C)OC(C)([C@H]1CC[C@H](N(C)C)CC1)O2 (relative stereo) [Compound 19, 7-(5-chlorothiophen-2-yl)-2-(trans-4-(dimethylamino)cyclohexyl)-2,4-dimethyl-N-((6-methyl-4-(methylthio)-2-oxo-1,2-dihydropyridin-3-yl)methyl)benzo[d][1,3]dioxole-5-carboxamide]	30 to 70%	≤ 30%	30 to 70%	≤ 30%	30 to 70%	≥ 70%
